In the assay the test system is L1210 leukemia ip in BDF1 mice, survival T/C. The assay is described as follows: NCI In Vivo Anticancer Drug Screen. Data for tumor model L1210 Leukemia (intraperitoneal) in B6D2F1 (BDF1) mice. Conditions: endpoint: mean survival time, higher = longer survival. In a few lines: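 Each compound was tested against a transplantable tumor grown in mice. The endpoint was survival, with treated animals benchmarked against vehicle controls as a simple ratio.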

Where [1] appears, read: dose: 100.0 mg/kg/injection, schedule: Q01DX009 (ip), vehicle: Klucel (hydroxypropylcellulose) (HPC).
Setting [2] is: dose: 100.0 mg/kg/injection, schedule: Q04DX003 (ip), vehicle: Klucel (hydroxypropylcellulose) (HPC).
Where [3] appears, read: dose: 200.0 mg/kg/injection, schedule: Q01DX009 (ip), vehicle: Klucel (hydroxypropylcellulose) (HPC).
Where [4] appears, read: dose: 200.0 mg/kg/injection, schedule: Q04DX003 (ip), vehicle: Klucel (hydroxypropylcellulose) (HPC).
[5] abbreviates: dose: 400.0 mg/kg/injection, schedule: Q01DX009 (ip), vehicle: Klucel (hydroxypropylcellulose) (HPC).
The mark [6] stands for this setting: dose: 400.0 mg/kg/injection, schedule: Q04DX003 (ip), vehicle: Klucel (hydroxypropylcellulose) (HPC).
Setting [7] is: dose: 100.0 mg/kg/injection, schedule: Q01DX001 (ip), vehicle: saline.
Setting [8] is: dose: 200.0 mg/kg/injection, schedule: Q01DX001 (ip), vehicle: saline.
[9] abbreviates: dose: 400.0 mg/kg/injection, schedule: Q01DX001 (ip), vehicle: saline.
Where [10] appears, read: dose: 100.0 mg/kg/injection, schedule: Q01DX009 (ip), vehicle: saline with Tween-80.
The mark [11] stands for this setting: dose: 200.0 mg/kg/injection, schedule: Q01DX009 (ip), vehicle: saline with Tween-80.
Where [12] appears, read: dose: 400.0 mg/kg/injection, schedule: Q01DX009 (ip), vehicle: saline with Tween-80.
The mark [13] stands for this setting: dose: 100.0 mg/kg/injection, schedule: Q04DX002 (ip), vehicle: saline.

Values joined by “and” are separate entries in the source; they are usually repeats but may differ in a detail not shown here. Identical values can stand only once. Toxic doses and inconclusive results are not listed.

In the case of `NC1CC=CCC1c1ccc2c(c1)OCO2` (configuration not stated), the T/C by setting is: (dose: 75.0 mg/kg/injection, schedule: Q01DX001 (ip), vehicle: saline) 100 % of control; (dose: 150.0 mg/kg/injection, schedule: Q01DX001 (ip), vehicle: saline) 92 % of control.

With `CCn1cc([N+](=O)[O-])ccc1=O`, the T/C is 104 % of control under setting [1]; 98 % of control under setting [2]; 101 % of control under setting [3]; 96 % of control under setting [4]; 98 % of control under setting [5]; 107 % of control under setting [6].

For `COc1cc(C)ccc1-c1c(C(=O)O)cccc1[N+](=O)[O-]`, the T/C was 93 % of control under setting [2], 95 % of control under setting [4] and 90 % of control under setting [6].

As to `Nc1ncnc2c1ncn2C1OC(CO)C(O)C(O)C1O` (configuration not stated), the T/C was 103 % of control [middle of 4 runs] under setting [7], 100 % of control [middle of 4 runs] under setting [8] and 100 % of control [middle of 4 runs] under setting [9].

`C=C1C(=O)OCC2(CC)CCCCC12` (configuration not stated): the T/C was 103 % of control (dose: 20.0 mg/kg/injection, schedule: Q01DX009 (ip), vehicle: saline with Tween-80); 106 % of control (dose: 40.0 mg/kg/injection, schedule: Q01DX009 (ip), vehicle: saline with Tween-80); 91 % of control (dose: 80.0 mg/kg/injection, schedule: Q01DX009 (ip), vehicle: saline with Tween-80); 98 % of control (dose: 160.0 mg/kg/injection, schedule: Q01DX009 (ip), vehicle: saline with Tween-80).

On to `O=Cc1ccc([N+](=O)[O-])s1`, for which the T/C was 101 % of control under setting [10]; 102 % of control (dose: 100.0 mg/kg/injection, schedule: Q04DX003 (ip), vehicle: saline with Tween-80); 97 % of control under setting [11]; 110 % of control (dose: 200.0 mg/kg/injection, schedule: Q04DX003 (ip), vehicle: saline with Tween-80); 101 % of control under setting [12]; 121 % of control (dose: 400.0 mg/kg/injection, schedule: Q04DX003 (ip), vehicle: saline with Tween-80).

Take `Clc1ccc(CNc2ncnc3[nH]ncc23)cc1`: the T/C is, setting by setting: (dose: 100.0 mg/kg/injection, schedule: Q01DX001 (ip), vehicle: other) 100 % of control; (dose: 100.0 mg/kg/injection, schedule: Q04DX003 (ip), vehicle: other) 104 % of control; (dose: 200.0 mg/kg/injection, schedule: Q01DX001 (ip), vehicle: other) 106 % of control; (dose: 200.0 mg/kg/injection, schedule: Q04DX003 (ip), vehicle: other) 113 % of control; (dose: 400.0 mg/kg/injection, schedule: Q01DX001 (ip), vehicle: other) 108 % of control; (dose: 400.0 mg/kg/injection, schedule: Q04DX003 (ip), vehicle: other) 103 % of control.

For `CCS[P+](NC1CCCCC1)(NC1CCCCC1)NC1CCCCC1`, the T/C is 94 % of control (dose: 25.0 mg/kg/injection, schedule: Q01DX009 (ip), vehicle: saline with Tween-80); 103 % of control (dose: 25.0 mg/kg/injection, schedule: Q04DX002 (ip), vehicle: saline with Tween-80); 100 % of control (dose: 50.0 mg/kg/injection, schedule: Q01DX009 (ip), vehicle: saline with Tween-80); 98 % of control (dose: 50.0 mg/kg/injection, schedule: Q04DX002 (ip), vehicle: saline with Tween-80); 88 % of control (dose: 100.0 mg/kg/injection, schedule: Q04DX002 (ip), vehicle: saline with Tween-80).

With `N#CCCN(Cc1ccccc1)C(=S)Nc1ccc(C(F)(F)F)cc1`, the T/C is, setting by setting: (dose: 100.0 mg/kg/injection, schedule: Q04DX002 (ip), vehicle: Klucel (hydroxypropylcellulose) (HPC)) 100 % of control; (dose: 200.0 mg/kg/injection, schedule: Q04DX002 (ip), vehicle: Klucel (hydroxypropylcellulose) (HPC)) 100 % of control; (dose: 400.0 mg/kg/injection, schedule: Q04DX002 (ip), vehicle: Klucel (hydroxypropylcellulose) (HPC)) 100 % of control.

As to `O=C(NC(C(O)CO)C(OC(=O)c1ccccc1)C(O)CO)c1ccccc1` (configuration not stated), the T/C under setting [10] was 105 % of control, the T/C under setting [11] was 94 % of control and the T/C under setting [12] is 94 % of control.

As to `O=S(=O)(O)C(O)c1ccccc1` (configuration not stated), the T/C is, setting by setting: under setting [13], 97 % of control; (dose: 200.0 mg/kg/injection, schedule: Q04DX002 (ip), vehicle: saline) 100 % of control; (dose: 400.0 mg/kg/injection, schedule: Q04DX002 (ip), vehicle: saline) 103 % of control.

As for `N.N.N.N.N.N#CN=C(N)N.[Co+3].[O-][Cl+3]([O-])([O-])[O-]`, under setting [13], the T/C is 171 % of control.

With `O=C(COc1ccc(Cl)cc1Cl)NCCO`, the T/C reads like this: under setting [2], 98 % of control; under setting [4], 97 % of control; under setting [6], 111 % of control.

With `Nc1nc(N)c2cc(CNc3ccc(C(=O)NC(C(=O)O)C(=O)O)cc3)ccc2n1`, the T/C runs as follows: (dose: 0.06 mg/kg/injection, schedule: Q01DX001 (ip), vehicle: saline) 122 % of control; (dose: 0.06 mg/kg/injection, schedule: Q01DX015 (ip), vehicle: carboxymethylcellulose (CMC)) 123 % of control; (dose: 0.25 mg/kg/injection, schedule: Q01DX015 (ip), vehicle: carboxymethylcellulose (CMC)) 105 % of control; (dose: 5.0 mg/kg/injection, schedule: Q01DX001 (ip), vehicle: carboxymethylcellulose (CMC)) 157 % of control and 173 % of control; (dose: 11.25 mg/kg/injection, schedule: Q01DX001 (ip), vehicle: carboxymethylcellulose (CMC)) 91 % of control; (dose: 20.0 mg/kg/injection, schedule: Q01DX001 (ip), vehicle: carboxymethylcellulose (CMC)) 89 % of control.

For the molecule `O=C(OC1CSC1)c1ccc([N+](=O)[O-])cc1`, the T/C by setting is: under setting [1], 95 % of control; under setting [3], 92 % of control; under setting [5], 97 % of control.

`O=C(O)CC(c1ccccc1)C(CC(=O)O)c1ccccc1` (configuration not stated): the T/C under setting [2] was 91 % of control, the T/C under setting [4] was 95 % of control and the T/C under setting [6] was 96 % of control.

For `Cc1c2ccncc2cc2c3ccccc3n(CCO)c12`, the T/C (dose: 9.38 mg/kg/injection, schedule: Q01DX009 (ip), vehicle: Klucel (hydroxypropylcellulose) (HPC)) was 105 % of control; the T/C (dose: 18.75 mg/kg/injection, schedule: Q01DX009 (ip), vehicle: Klucel (hydroxypropylcellulose) (HPC)) is 107 % of control; the T/C (dose: 18.75 mg/kg/injection, schedule: Q04DX003 (ip), vehicle: Klucel (hydroxypropylcellulose) (HPC)) was 97 % of control; the T/C (dose: 37.5 mg/kg/injection, schedule: Q01DX009 (ip), vehicle: Klucel (hydroxypropylcellulose) (HPC)) is 107 % of control; the T/C (dose: 37.5 mg/kg/injection, schedule: Q04DX003 (ip), vehicle: Klucel (hydroxypropylcellulose) (HPC)) was 107 % of control; the T/C (dose: 75.0 mg/kg/injection, schedule: Q04DX003 (ip), vehicle: Klucel (hydroxypropylcellulose) (HPC)) is 105 % of control. Besides, the T/C is, setting by setting: under setting [4], 98 % of control; under setting [6], 104 % of control.

Consider `Cn1c(=O)c2c(ncn2CCO)n(C)c1=O`, for which the T/C is 100 % of control under setting [7]; 99 % of control (dose: 100.0 mg/kg/injection, schedule: Q01DX009 (ip), vehicle: saline); 104 % of control (dose: 100.0 mg/kg/injection, schedule: Q04DX003 (ip), vehicle: saline); 104 % of control under setting [8]; 100 % of control (dose: 200.0 mg/kg/injection, schedule: Q01DX009 (ip), vehicle: saline); 101 % of control (dose: 200.0 mg/kg/injection, schedule: Q04DX003 (ip), vehicle: saline). The T/C is 102 % of control under setting [9]; 105 % of control (dose: 400.0 mg/kg/injection, schedule: Q01DX009 (ip), vehicle: saline); 100 % of control (dose: 400.0 mg/kg/injection, schedule: Q04DX003 (ip), vehicle: saline).

Source of the values: PubChem BioAssay AID248 (DTP/NCI, 2004).
